Measurements reported in patent US20160214958A1, “COMPOUNDS AND USE FOR TREATING CANCER” (GLIONOVA AB, priority 2013, published 2016).

What was measured:
[1] = Tolerance of oral dosing of S10; assay type: in vivo; settings: 20 mg/kg/day oral gavage for one week, weight loss and signs of distress
[2] = system: U3013MG GSCs injected into brain ventricle; assay: Zebrafish xenograft in vivo efficacy assay
Experimental: A xenotransplantation model for GBM in zebrafish was developed to test the capacity of the 17 hits to prevent tumor formation in vivo. Three thousand U3013MG GSCs labeled with cell tracker red were injected intracranially into the ventricle of 48-52 hpf larvae. Each of the 17 hits were administered to the egg water at the lowest effective in vitro cytotoxic concentration identified and tumor development assessed 10 days later. This assay allowed rapid evaluation of the compounds in an in vivo setup, features such as the acute/chronic toxicity effect of the compounds on zebrafish and the transplanted cells, transplanted cell proliferation and migration of cells into brain parenchyma, compounds penetrance into the zebrafish tissue were all parallely evaluated. […] Cardiovascular toxicity was assessed using a recently established model based on frequency spectral analysis of heart beating in ex-vivo adult zebrafish hearts (Kitambi et al., (2012) BMC Physiol. 12, 3).
The zebrafish xenografts glioblastoma model was developed for quantitative analyses on the efficacy of S10 to inhibit tumor development and for quantification of infiltration of cells in the host brain. […] The size of the tumor was determined by quantification of the area, fluorescence level and infiltration by measuring the average distance of infiltrating cells from the original tumor mass. […]

zebrafish embryos = settings: in vivo
Experimental: To assess the selectivity of compounds on mixed cultures consisting of GSC with other cell types, a hanging drop-based mixed culture procedure was developed. U3013MG GSCs were labeled with a cell tracker red and fibroblasts with a cell tracker green fluorescent dye for co-cultures to assess selective effects on glioma cells (glioblastoma) in a mixed culture setting. Cells organized in layers in the absence of compounds.
A zebrafish model was used to assess the developmental and cardiac toxicity of advanced hits from the screen. For the developmental toxicity experiment, zebrafish embryos at one-cell stage were distributed into a 96 well plate (3 embryos per well in 200 μl of egg water) and exposed to DMSO as a control or various concentration of compounds. The egg water (with or without compound) was replaced every 6 hrs and the embryos were allowed to grow for three days. The embryos were monitored every day and allowed to grow for 5 days before the phenotype was recorded. For the cardiotoxicity assay, an ex vivo culture of adult hearts was performed according to our previously published procedure (Kitambi et al., (2012) BMC Physiol. 12, 3). Adult hearts from male zebrafish were exposed to compounds and the effect on the heart beat was recorded and analysed using developed methods (Kitambi et al., (2012) BMC Physiol. 12, 3).

[3] = In vivo pharmacokinetics studies of S10 (iv, ip, per oral); set-up: species or system male BALB/c Mice; settings: male, BALB/c, mouse, ip and per oral administration
Experimental: The bioavailability of S10 by oral and intraperitoneal injection in vivo was investigated. […] In a second delivery regimen, treatment was performed per orally (20 mg/kg) twice daily for five days. Treatment started at a terminal stage of GBM, i.e. six weeks after engraftment of U3013M GSCs and median survival from the time of treatment initiation and the Hazard ratio were scored.
In vivo pharmacokinetic studies of S10 were performed at SAI Life Sciences Ltd., Hyderabad, India to determine the plasma pharmacokinetics and brain distribution of S10 following a single intravenous, intraperitoneal and oral administration in male BALB/c Mice. Blood samples (approximately 60 μL) were collected from retro-orbital plexus of each mouse. The plasma and brain samples were obtained at 0.08, 0.25, 0.5, 1, 2, 4, 8, 24, 48, 72 and 144 hr (i.v.); 0.08, 0.25, 0.5, 1, 2, 4, 8 and 24 hour (i.p.) and 0.25, 0.5, 1, 2, 4, 6, 8, 24, 48, 72 and 144 hr (p.o.) post dosing. Plasma was harvested by centrifugation of blood and stored at −70° C. until analysis. Immediately after collection of blood, brain samples were collected from each mouse. Tissue samples (brain) were homogenized using ice-cold phosphate buffer saline (pH 7.4) and homogenates were stored below −70° C. until analysis. […] Plasma and brain samples were quantified using LC-MS/MS method LLOQ=1.03 ng/mL for plasma and LLOQ=10.25 ng/mL for brain. […]

With `OC(c1cc(-c2ccc(Cl)cc2)nc2ccccc12)C1CCCCN1` (racemic) [Compound S10, (2-(4-chlorophenyl)quinolin-4-yl)(piperidin-2-yl)methanol] the “tolerance of oral dosing” value [1] was “well tolerated”, the tumor growth ([2]; 15 μM applied to the aquarium water for 10 days) was “marked attenuation of tumor growth” and the tumor size ([2]; lowest effective in vitro cytotoxic concentration in egg water, assessed 10 days later) was “markedly reduced tumor size”. For the same compound, the “effect on zebrafish development” value (zebrafish embryos) was “did not exert any effect of zebrafish development”, the bioavailability ([3]; plasma, following iv, read-out: bioavailability F) was 69% and the half-life ([3]; plasma and brain exposure following iv, read-out: half-life t1/2 (converted)) was 20 h.
